Molecular target: 2-acylglycerol O-acyltransferase 2 (Homo sapiens, UniProt Q3SYC2)
Test: LCMS Assay
Settings: pH 7.4; 65 °C
Description: The MGAT enzyme reactions were performed in Corning FALCON® 96-well Polypropylene plates, in a total volume of 60 μL of 50 mM Potassium Phosphate buffer pH 7.4, containing a final concentration of 100 μM 2-oleoylglycerol, 15 μM oleoyl-Coenzyme A and 0.0013 μg/μL Human or Mouse MGAT-2 or 0.0026 μg/μL Rat recombinant MGAT-2 membranes expressed in Sf9 cells. Assay plates were run through a fully automated robotics system and shaken for 5 seconds every minute for a total 10 minutes. The reactions were then quenched with 120 μL of ice cold methanol containing 1 μg/mL 1,2-distearoyl-rac-glycerol as the internal standard. Plates were shaken for 2 minutes and spun down to remove protein precipitation. After the spin, samples were transferred to LC/MS compatible PCR plates. For LC/MS analysis, a ThermoFisher Surveyor pump, utilizing a Waters Symmetry C8, 50×2.1 mm column, was used for the chromatography of enzyme products. The buffer system consists of 0.1% formic acid in water with a mobile phase consisting 0.1% formic acid in methanol. The shallow gradient is 90-100% mobile phase in 0.2 min with a total run time of 2.3 min. The first 0.5 minutes of each injection was diverted to waste to eliminate the presence of Phosphate buffer in the enzymatic reaction. The column was run at 0.6 mL/min and a temperature of 65° C.

Sequence of 2-acylglycerol O-acyltransferase 2 (Q3SYC2 whole entry): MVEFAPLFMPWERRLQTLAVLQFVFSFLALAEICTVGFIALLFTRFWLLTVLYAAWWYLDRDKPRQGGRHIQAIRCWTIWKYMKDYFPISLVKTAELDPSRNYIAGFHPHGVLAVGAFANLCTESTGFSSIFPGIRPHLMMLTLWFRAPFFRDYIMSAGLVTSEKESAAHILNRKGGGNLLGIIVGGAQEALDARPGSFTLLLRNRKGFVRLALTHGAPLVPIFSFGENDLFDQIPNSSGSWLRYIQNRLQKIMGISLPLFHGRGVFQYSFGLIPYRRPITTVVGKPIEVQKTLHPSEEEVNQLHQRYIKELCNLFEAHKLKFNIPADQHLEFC

Structure (SMILES) | IC50
CC(C)(C)n1ccc(C2=C(C(=O)NS(=O)(=O)C3CC3)C(=O)N[C@@](c3ccc(OCCCCCC(F)(F)F)cc3)(C(F)(F)F)C2)n1 [US9365558, 80] | 40 nM
Cc1ccc(C2=C(C(=O)NS(=O)(=O)N(C)C)C(=O)N[C@@](c3ccc(OCCCC(F)(F)F)cc3)(C(F)(F)F)C2)cc1 [US9365558, 31] | 38 nM

— BindingDB's records for patent US9365558 (Bristol Myers Squibb, 2016)
